Patent publication US10844002B2, “Lipids and lipid compositions for the delivery of active agents” (priority 2014, dated 2020)

Assays:
[1] = Encapsulation efficiency of RNA replicons (Quant-iT RiboGreen); type: physicochemical; details: LNP 40% cationic lipid, 10% DSPC, 48% cholesterol, 2% PEG-DMG; RNA replicon
Protocol: Briefly, lipids were dissolved in ethanol (2m1), a RNA replicon was dissolved in buffer (2 ml, 100 mM sodium citrate, pH 6) and these were mixed with 2 ml of buffer followed by 1 hour of equilibration. The mixture was then dialized overnight against 1×PBS. The resulting product contained liposomes, with ˜70-95% encapsulation efficiency.
The percentage of encapsulated RNA and RNA concentration were determined by Quant-iT RiboGreen RNA reagent kit (Invitrogen), following manufacturer's instructions. The ribosomal RNA standard provided in the kit was used to generate a standard curve. LNPs were diluted 10× or 100× in 1× TE buffer (from kit) before addition of the dye. Separately, LNPs were diluted 10× or 100× in 1× TE buffer containing 0.5% Triton X before addition of the dye (to disrupt the LNPs and thus to assay total RNA). Thereafter an equal amount of dye was added to each solution and then ˜180 μL of each solution after dye addition was loaded in duplicate into a 96 well tissue culture plate. The fluorescence (Ex 485 nm, Em 528 nm) was read on a microplate reader. All LNP formulations were dosed in vivo based on the encapsulated amount of RNA.

RSV F protein = type: in vivo; details: Table 4; BALB/c mice, intramuscular, 1 ng vA375 replicon in LNP, days 0 and 21
[2] = Measurement of mRNA encapsulation in lipid nanoparticles (Quant-iT Ribogreen); type: physicochemical; details: LNP cationic lipid/DSPC/cholesterol/stealth lipid, N:P 4:1, leptin mRNA
Protocol: All equipment and disposable supplies are certified free of RNase activity by the manufacturer or rendered RNase free by use of the RNaseZap reagent (LifeTechnologies). mRNA is encapsulated at a cationic lipid amine to mRNA phosphate (N:P) molar ratio of 4:1. Lipids (cationic lipid, DSPC, cholesterol and lipidated PEG or stealth lipid) are dissolved in ethanol. The molar ratios are 40:10:38:2, respectively. The mixture is sonicated briefly, then gently agitated for 5 minutes and then maintained at 37° C. until use. mRNA is exchanged into citrate buffer pH 5.8-6.0 by use of Amicon Ultra-15 centrifugal concentrators, and the final concentration is adjusted to 0.5 mg/ml and held at 37° C. until use. An equal volume of lipids in ethanol, mRNA in citrate buffer, and citrate buffer alone are drawn into disposable syringes. Tubing leading from syringes containing lipids and mRNA are attached to the T junction, and tubing leading from the syringe containing citrate buffer alone is paired with the tubing exiting the T-junction over a collection vessel containing a stir bar on an active stir plate. Syringes are placed in a syringe pump set to expel contents at a flow rate of 1 ml per minute.
The pump is activated, and the collected mRNA in lipid nanoparticles is transferred to SnakeSkin dialysis tubing (10,000 MWCO, Thermo Scientific). Material is dialyzed against RNAse- and pyrogen-free 1× phosphate buffered saline overnight at 4° C.
Percent encapsulation of mRNA in lipid nanoparticles is determined using the Quant-iT Ribogreen RNA Assay kit (Life Technologies). The LNP-mRNA suspension is assayed in buffer (mRNA outside the particle), and buffer plus Triton X-100 detergent (total mRNA). The difference calculated is the mRNA inside the particle. Prepare a 1000 ng/mL stock from the RNA provided in the kit and use this to generate a standard curve (0 ng/ml, 15.63-1000 ng/ml) in TE and TE+0.75% Triton X-100. Prepare LNP-mRNA samples in TE buffer and TE buffer+0.75% Triton X-100 with appropriate dilution so that reading is in the range of standard curve (400-2,000 fold). In a 384-well plate (Costar non-treated #3573) add 0.04 ml of standard (in duplicate) or sample (in triplicate) per well. Dilute Ribogreen reagent 240-fold in TE buffer and add 0.06 ml per well. Mix contents of wells and measure fluorescence (excitation=480 nm, emission=520 nm). Subtract background values (no RNA) from standard and test sample values and determine the concentrations of RNA in the samples using the standard curves. Determine the percent encapsulation of the sample by dividing the difference in concentrations between sample+triton and sample in buffer alone by the sample+triton concentration.

[3] = Characterization of LNP formulations: Z average particle diameter and polydispersity index; type: physicochemical; details: LNP formulation; for Zav (nm): Z average particle diameter; for polydispersity: polydispersity index
Description: The lipid nanoparticles have a size of about 1 to about 2,500 nm, about 1 to about 1,500 nm, about 1 to about 1,000 nm, in a sub-embodiment about 50 to about 600 nm, in a sub-embodiment about 50 to about 400 nm, in a sub-embodiment about 50 to about 250 nm, and in a sub-embodiment about 50 to about 150 nm. Unless indicated otherwise, all sizes referred to herein are the average sizes (diameters) of the fully formed nanoparticle, as measured by dynamic light scattering on a Malvern Zetasizer. The nanoparticle sample is diluted in phosphate buffered saline (PBS) so that the count rate is approximately 200-400 kcts. The data is presented as a weighted average of the intensity measure.

Row | SMILES | Encapsulation efficiency (RNA %) [1] | Log10(IgG titer), 1 ng RNA (RSV-F), 2 weeks post 2nd immunization (RSV F protein) | % encapsulation (mRNA Leptin) [2] | Zav (nm) [3] | polydispersity [3]
1 | CCCCC/C=C\C/C=C\CCCCCCCCOc1cc(COC(=O)CCCN(C)C)c(OCCCCCCCC/C=C\C/C=C\CCCCC)cc1C [Example 16, 4-methyl-2,5-bis((9Z,12Z)-octadeca-9,12-dien-1-yloxy)benzyl 4-(dimethylamino)butanoate] | 88.0% | 4.40 | 85.1% | 115.5 nm | 0.108
2 | CCCCC/C=C\C/C=C\CCCCCCCCOc1ccc(COC(=O)CCCN(C)C)c(OCCCCCCCC/C=C\C/C=C\CCCCC)c1 [Example 19, 2,4-bis((9Z,12Z)-octadeca-9,12-dienyloxy)benzyl 4-(dimethylamino)butanoate] | 79.9% | 4.68 | 84.3% | 133.2 nm | 0.074
